Assay [1] addresses T1, RIPK2 enzyme (Homo sapiens, UniProt O43353).
T1 construct: purchased Carna 09-128
Description: RIPK2 inhibition (ADP-Glo Kinase Assay). It is filed as biochemical. Particulars: RIPK2 5 nM, ATP 150 μM, MBP substrate, read-out: RIPK2 IC50. The gist of the method: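 Swine MBP substrate; compound and 5 nM RIPK2 first mixed for 30 min at room temperature; buffer pH 7.5 HEPES 50 mM with 10 mM MgCl2, 2 mM DTT, 1 mM EGTA, Brij-35, BSA.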

Assay [2] relates to TNF-alpha secretion in human whole blood. The experiment in a line: Inhibition of TNF-alpha secretion in human whole blood (IFN-gamma primed, L18-MDP stimulated). The following applies: Homo sapiens, 16 h, L18-MDP 100 ng/mL, read-out: Human Whole Blood TNFα IC50. In kind it is cell-based.
For assay [3], the system named is RIPK2 activity in vivo, as measured by plasma levels of cytokine MCP-1. Description: In vivo inhibition of monocyte chemoattractant protein-1 (MCP-1), acute mouse MDP challenge. The following applies: female C57BL/6 mice, plasma 2 h after MDP. How it is done: The compounds of the disclosure were tested for their ability to inhibit RTPK2 activity in vivo, as measured by plasma levels of cytokine MCP-1. C57BL/6 mice were dosed orally with the compounds of the disclosure one hour prior to intra-peritoneal administration of muramyldipeptide (MDP), a NOD2 agonist. Intraperitoneal (i.p.) injection of MDP in mice induces an increase in circulating levels of proinflammatory cytokines, such as MCP-1, in a RIPK2-dependent manner. This acute mouse MDP challenge represents a screening model to measure the ability of compounds to inhibit RIPK2 in vivo.
Materials: Female C57BL/6 mice (6-13 weeks of age) were purchased from the Jackson Laboratory. All mice were maintained under a 12 h light/dark cycle and had food and water ad libitum. Muramyldipeptide (MDP) was purchased from Invivogen (catalog No. tlrl-mdp; lot No. 6231-43-02). Mouse MCP-1 was measured using U-PLEX MSD kit (Meso Scale Discovery (MSD), catalog No. K15069M-2). Carboxymethyl cellulose was purchased from Sigma-Aldrich (catalog No. C5678-500 ml), Tween80 was purchased from Sigma-Aldrich (catalog No. P1754-500 ml), (Hydroxypropyl)-β-cyclodextrin (HP-β-CD) was purchased from Sigma-Aldrich (catalog No. C332607-500G), PBS was purchased from Thermo Fisher Scientific (catalog No. 14190250).
The vehicle was prepared by mixing carboxymethyl cellulose and Tween80 to achieve a final solution of 0.5% CMC or 20% HP-β-CD in water. The compounds of the disclosure were weighed out and mixed with the vehicle to yield final working suspensions. Working suspensions of the compounds were prepared once at the beginning of the study, and vortexed and sonicated prior to each dosing to ensure the material was in fine suspension.
Mice were acclimated to the facility for at least 5 days before the start of the study. On day 0, mice were weighed and assigned to groups in a balanced manner to achieve similar average weight across the groups at the start of the study. On day 0, hour −1 (1 hours before MDP injection), all mice were given a single p.o. dose with vehicle or a compound of the disclosure. At hour 0 (1 hour after dosing), mice were injected intraperitoneally (IP) with 8 mpk MDP in PBS. Two hours after MDP injection (3 hours after drug treatment), blood was collected via cardiac puncture for all mice into EDTA microtainer collection tubes. Plasma was prepared from blood and stored at −80° C.
MCP-1 levels in mouse plasma were measured using U-PLEX MSD kit according to manufacturer's instructions. A single analysis was performed for each sample. Concentrations were determined relative to a standard calibration curve, and total analyte levels in pg/mL.
The MCP-1 data in pg/mL were normalized in GraphPad Prism 9.2 using the normalize function and entering the 0% and 100% inhibition control groups for the study. 0% inhibition was defined as mean MCP-1 pg/mL in MDP vehicle group, and 100% inhibition was defined as mean MCP-1 pg/mL in the unstimulated vehicle group.

Setting [4] is: single p.o. dose 10 mg/kg 1 h before i.p. MDP 8 mpk.
The mark [5] stands for this setting: single p.o. dose 3 mg/kg 1 h before i.p. MDP 8 mpk.

pIC50: −log10 of the molar value. Where only a bound is given, the exact number is not on record here.

T1 sequence (O43353 1-299 limits assumed): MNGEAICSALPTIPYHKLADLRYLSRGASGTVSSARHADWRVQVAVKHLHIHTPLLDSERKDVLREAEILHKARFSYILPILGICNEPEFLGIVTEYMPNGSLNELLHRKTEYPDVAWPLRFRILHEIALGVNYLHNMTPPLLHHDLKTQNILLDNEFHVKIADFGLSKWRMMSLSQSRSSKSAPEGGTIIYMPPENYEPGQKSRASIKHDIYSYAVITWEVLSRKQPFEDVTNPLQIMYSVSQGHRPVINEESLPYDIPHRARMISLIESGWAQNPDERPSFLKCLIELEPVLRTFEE

Consider `CC(C)(C)n1cc(NC(=O)Cc2ccc(Oc3ccnc4ccc(S(C)(=O)=O)cc34)cc2F)cn1` [Compound 38, N-(1-(tert-butyl)-1H-pyrazol-4-yl)-2-(2-fluoro-4-((6-(methylsulfonyl)quinolin-4-yl)oxy)phenyl)acetamide], for which the pIC50 in assay [1] is greater than 8.60; in assay [2] it was 8.30. The “% MCP-1 inhibition” value in assay [3] (setting [4]) turned out to be 99%.

Regarding `Cc1cc(CC(=O)Nc2cnn(C(C)(C)C)c2)ccc1Oc1ccnc2ccc(OC3CCNCC3)cc12` [Compound 83, N-(1-(tert-butyl)-1H-pyrazol-4-yl)-2-(3-methyl-4-((6-(piperidin-4-yloxy)quinolin-4-yl)oxy)phenyl) acetamide], the pIC50 in assay [1] is greater than 8.60; in assay [2], 8.52. For the same compound, the “% MCP-1 inhibition” value in assay [3] (setting [5]) is given as “no effect”.

In the case of `Cc1cc(CC(=O)Nc2cnn(C(C)(C)C)c2)ccc1Oc1ccnc2ccc(S(C)(=O)=O)cc12` [Compound 86, N-(1-(tert-butyl)-1H-pyrazol-4-yl)-2-(3-methyl-4-((6-(methylsulfonyl)quinolin-4-yl)oxy)phenyl)acetamide], the pIC50 in assay [1] was greater than 8.60; in assay [2] it was 8.05. For the same compound, in assay [3] (setting [5]), the “% MCP-1 inhibition” value was found to be 101%.

Consider `Cc1c(Oc2ccnc3ccc(S(C)(=O)=O)cc23)ccc(CC(=O)Nc2cnn(C(C)(C)C)c2)c1F` [Compound 91, N-(1-(tert-butyl)-1H-pyrazol-4-yl)-2-(2-fluoro-3-methyl-4-((6-(methylsulfonyl)quinolin-4-yl)oxy)phenyl)acetamide], for which the values for the pIC50 in assay [1] and in assay [2] were greater than 8.60 and 8.22, respectively. Moreover, the “% MCP-1 inhibition” value in assay [3] (setting [5]) is on record as 99%.

As for `CCS(=O)(=O)c1ccc2nccc(Oc3ccc(CC(=O)Nc4cnn(C(C)(C)C)c4)cc3C)c2c1` [Compound 99, N-(1-(tert-butyl)-1H-pyrazol-4-yl)-2-(4-((6-(ethylsulfonyl)quinolin-4-yl)oxy)-3-methylphenyl)acetamide], the pIC50 in assay [1] is greater than 8.60; in assay [2], 8.10. In addition, the “% MCP-1 inhibition” value in assay [3] (setting [5]) was 111%.

As for `Cc1cc(CC(=O)Nc2cnn(C(C)(C)C)c2)c(F)cc1Oc1ccnc2ccc(S(C)(=O)=O)cc12` [Compound 113, N-(1-(tert-butyl)-1H-pyrazol-4-yl)-2-(2-fluoro-5-methyl-4-((6-(methylsulfonyl)quinolin-4-yl)oxy)phenyl)acetamide], the pIC50 was greater than 8.60 in assay [1] and 7.85 in assay [2]. Further, the “% MCP-1 inhibition” value in assay [3] (setting [4]) amounted to 82%.

In the case of `Cc1cc(CC(=O)Nc2cnn(C(C)(C)C)c2)c(F)cc1Oc1ccnc2ccc(C(N)=O)cc12` [Compound 359, 4-(4-(2-((1-(tert-butyl)-1H-pyrazol-4-yl)amino)-2-oxoethyl)-5-fluoro-2-methyl-phenoxy) quinoline-6-carboxamide], the pIC50 is greater than 8.60 in assay [1] and 8.40 in assay [2]. Further, the “% MCP-1 inhibition” value in assay [3] (setting [4]) is listed as 88%.

For `CNC(=O)c1ccc2nccc(Oc3cc(F)c(CC(=O)Nc4cnn(C(C)(C)C)c4)cc3C)c2c1` [Compound 360, 4-(4-(2-((1-(tert-butyl)-1H-pyrazol-4-yl)amino)-2-oxoethyl)-5-fluoro-2-methylphenoxy)-N-methylquinoline-6-carboxamide], the pIC50 is greater than 8.60 in assay [1] and 8.15 in assay [2]. Moreover, in assay [3] (setting [4]), the “% MCP-1 inhibition” value is recorded as 93%.

`Cc1cc(CC(=O)Nc2cnn(C(C)(C)C)c2)cc(C)c1Oc1ccnc2cc(F)c(C(N)=O)cc12` [Compound 581, 4-(4-(2-((1-(tert-butyl)-1H-pyrazol-4-yl)amino)-2-oxoethyl)-2,6-dimethylphenoxy)-7-fluoroquinoline-6-carboxamide]: in assay [1], the pIC50 is greater than 8.60. In addition, in assay [3] (setting [5]), the “% MCP-1 inhibition” value turned out to be 75%.
